Source: patent US9097706B2, “Insect-based ex vivo model for testing blood-brain barrier penetration and method for exposing insect brain to chemical compounds” (ENTOMOPHARM APS, priority 2009, dated 2015)
Like-named read-outs stand apart in the source and are kept apart here.

Tests used:
locust brain barrier = assay: Visual inspection of Evans Blue permeation through the locust brain barrier; format: in vitro ADME, Locusta migratoria; conditions: 5 minutes in Evans Blue; neural lamella removed
Description: A cut was made through the frontal part of the head of the adult locusta migratoria. Each brain was placed for 5 minutes in a microtiter well containing a mixture of Evans Blue. The neural lamella was removed from the brain.

[1] = test system: grasshopper BBB (locusta migratoria brain in its cuticle shell)
Description: 1. […] The insects may be obtained from local suppliers or bred in house. The grasshoppers were reared under crowded conditions at 28° C. and a 12:12 dark:light photocycle and fed fresh grass and bran. Before experiments the grasshoppers were fed ecologically cultivated wheat for two weeks. Animals used are adult males (in some experiments females) between two to four weeks after adult emergence. A cut is made through the frontal part of the locust head comprising the most frontal parts including the antennae, the compound eyes, the brain and all neural connections between the brain and the antennae and the eyes. This preparation in its cuticle shell is placed in a well of a microtitre plate containing the test solution. After various times of exposure the preparation is washed in saline and the brain is dissected under microscope with fine forceps. The neural lamella surrounding the brain is removed in saline and the brain is then […] in saline, centrifuged and the supernatant frozen until analyses. Drug concentration is analysed by HPLC, LC/MSMS or other methods.
A cut was made through the frontal part of the head of adult female locusta migratoria. Each brain in its cuticle shell was placed in a 0.12 mg/ml mianserin solution for 5 minutes. The brain was prepared in saline and removed from the cuticle shell and three brains were placed in each test tube containing 100 ul distilled H2O. 200 ul ACN was added to each tube and the tubes were placed in a sonicator and the brains were disintegrated by approximately 5 seconds of sonication. The samples containing the disintegrated brains were centrifuged for 5 minutes (10000 g at 4° C.).
A cut was made through the frontal part of the head of adult female locusta migratoria. Each brain in its cuticle shell was placed in a 0.12 mg/ml mianserin solution for 5 minutes. The brain was prepared in saline and removed from the cuticle shell. The brains were washed in Saline. After wash three brains were placed in each test tube containing 100 ul distilled H2O. 200 ul ACN was added to each tube and the tubes were placed in a sonicator and the brains were disintegrated by approximately 5 seconds of sonication.
A cut was made through the frontal part of the head of adult female locusta migratoria. Each brain in its cuticle shell was placed in a 0.12 mg/ml mianserin solution for 5 minutes. The brain was prepared in saline and removed from the cuticle shell. To stain the neural lamella Evans Blue was added and the neural lamella was removed. Three brains were placed in each test tube containing 100 ul distilled H2O. 200 ul ACN was added to each tube and the tubes were placed in a sonicator and the brains were disintegrated by approximately 5 seconds of sonication.
A cut was made through the frontal part of the head of the adult locusta migratoria. Each brain in its cuticle shell was placed in a 0.9 mg/ml mianserin solution for 5 minutes. The brain was prepared in saline and removed from the cuticle shell. Three brains were placed in a test tube containing 100 ul PBS. 200 ul ACN was added to each tube. The tubes were placed in a sonicator and the brains were disintegrated by approximately 5 seconds of sonication.
A cut was made through the frontal part of the head of the adult locusta migratoria. Each brain was placed for 5 minutes in a microtiter well with an approximately 0.95 mg/ml solution of mianserin. To stain the neural lamella Evans Blue was added and the neural lamella was removed. Two brains are placed in each test tube and 100 ul distilled H2O and 200 ul ACN is added. The tubes were placed in a sonicator and the brains were disintegrated by approximately 5 seconds of sonication.
A cut was made through the frontal part of the head of the adult locusta migratoria. […] To stain the neural lamella Evans Blue was added and the neural lamella was removed.

Blattodea BBB = conditions: for average concentration in brain supernatant measured by LCMS: Blattodea
Description: A cut was made through the frontal part of the head of the Blattodea. Each brain was placed for 5 minutes in a microtiter well with an approximately 1.0 mg/ml solution of trazodone. To stain the neural lamella Evans Blue was added and the neural lamella was removed. Two brains are placed in each test tube and 50 ul distilled H2O and 100 ul ACN is added. The tubes were placed in a sonicator and the brains were disintegrated by approximately 5 seconds of sonication.

[2] = Locusta migratoria, 5 min, 0.9 mg/ml

SMILES: Cc1cc(-c2ccc(/N=N/c3ccc4c(S(=O)(=O)O)cc(S(=O)(=O)O)c(N)c4c3O)c(C)c2)ccc1/N=N/c1ccc2c(S(=O)(=O)O)cc(S(=O)(=O)O)c(N)c2c1O [Evans Blue]
- permeation through the locust brain barrier (visual signs in brain) (locust brain barrier): no significant permeation

SMILES: Cn1c(=O)c2c(ncn2C)n(C)c1=O [caffeine]
- average concentration in brain supernatant measured by LCMS ([1]; approximately 0.78 mg/ml solution, 5 minutes, neural lamella removed, two brains per tube): 1533 ng/mL
- permeation of the grasshopper BBB (in words) ([1]; conclusion from the examples): permeate the grasshopper BBB to a much larger extent than peripheral acting drugs
- average concentration in brain supernatant measured by LCMS (Blattodea BBB; approximately 0.1 mg/ml solution, 5 minutes, neural lamella removed, two brains per tube): 152 ng/mL
- average concentration in brain supernatant measured by LCMS (Blattodea BBB; approximately 1.0 mg/ml solution, 5 minutes, neural lamella removed, two brains per tube): 1028 ng/mL
- permeation of the Blattodea BBB (in words) (Blattodea BBB; conclusion from Examples AB-AG): permeate the Blattodea BBB to a much larger extent than atenolol

SMILES: CN1CCN2c3ccccc3Cc3ccccc3C2C1 (stereo not shown) [mianserin]
- [with lamella]/[without lamella] ratio ([1]; Locusta migratoria, 5 min, 0.1 mg/ml): 1.7
- [with lamella]/[without lamella] ratio [1, 2]: 2.3
- average concentration in brain supernatant measured by LCMS ([1]; Locusta migratoria, 5 min, 0.95 mg/ml): 1439 ng/mL

SMILES: CC(C)NCC(O)COc1cccc2ccccc12 (stereo not shown) [propranolol]
- permeation of the grasshopper BBB (in words) [1]: permeate the grasshopper BBB to a much larger extent than peripheral acting drugs
- average concentration in brain supernatant measured by LCMS ([1]; Locusta migratoria, 5 min, 0.72 mg/ml): 674 ng/mL

SMILES: O=c1n(CCCN2CCN(c3cccc(Cl)c3)CC2)nc2ccccn12 [trazodone]
- permeation of the grasshopper BBB (in words) [1]: permeate the grasshopper BBB to a much larger extent than peripheral acting drugs
- average concentration in brain supernatant measured by LCMS [1, 2]: 1317 ng/mL
- permeation of the Blattodea BBB (in words) (Blattodea BBB): permeate the Blattodea BBB to a much larger extent than atenolol
- average concentration in brain supernatant measured by LCMS (Blattodea BBB; 5 min, 0.1 mg/ml): 127 ng/mL
- average concentration in brain supernatant measured by LCMS (Blattodea BBB; 5 min, 1 mg/ml): 768 ng/mL
